pIC50: −log10 of the molar value. ≈ marks a conversion by molar mass, not a printed value. Calls of active or inactive are those of the source. The calls are words filed in the database; no cut-off is given here.
Assays:
[1] = target: T1, Mushroom tyrosinase (Agaricus bisporus) (UniProt O42713+Q00024+C7FF04+C7FF05); test: Inhibition of monophenolase activity of mushroom tyrosinase at 100 uM relative to control
[2] = target: T2, Mushroom tyrosinase (Agaricus bisporus, UniProt O42713+Q00024+C7FF04+C7FF05); test: Inhibition of monophenolase activity of mushroom tyrosinase using L-Tyrosine substrate incubated for 5 mins followed by substrate addition and measured for 30 mins by colorimetry
[3] = test system: B16-F10; test: Inhibition of melanin production in mouse B16-F10 cells at 25 ug/ml relative to control; format: functional
[4] = target: T1, Mushroom tyrosinase (Agaricus bisporus); test: Inhibition of monophenolase activity of mushroom tyrosinase assessed as reduction in dopachrome formation using L-Tyrosine substrate incubated for 30 mins by spectrophotometry relative to control
[5] = Solubility of compound in water at >[…] uM; format: physicochemical; conditions: buffer; dose >50 µM
[6] = test system: B16-F10; test: Cytotoxicity against mouse B16-F10 cells assessed as reduction in cell viability incubated for 72 hrs by XTT assay; format: cell-based; conditions: B16-F10, 72 h
[7] = test system: B16-F10; test: Inhibition of melanin production in mouse B16-F10 cells at 12.5 ug/ml relative to control; format: functional
[8] = target: T2, Mushroom tyrosinase; test: Inhibition of diphenolase activity of mushroom tyrosinase assessed as reduction in dopachrome formation using L-DOPA substrate incubated for 30 mins
[9] = target: T2, Mushroom tyrosinase; test: Inhibition of monophenolase activity of mushroom tyrosinase using L-Tyrosine substrate incubated for 10 mins followed by substrate addition and measured for 15 mins
[10] = test system: B16-F10; test: Inhibition of melanin production in mouse B16-F10 cells at 100 ug/ml relative to control; format: functional
[11] = test system: B16-F1; test: Inhibition of melanin production in C57BL/6J mouse B16-F1 cells incubated for 5 days; format: functional, cell-based; conditions: B16-F1, 120 h
[12] = cells; conditions: Mus musculus, B16-BL6, 120 h
Description: Cytotoxicity against mouse B16-BL6 cells assessed as reduction in cell viability incubated for 5 days by MTT assay

[13] = target: T2, Mushroom tyrosinase; test: Inhibition of monophenolase activity of mushroom tyrosinase using L-Tyrosine substrate incubated for 30 mins by spectrophotometry
[14] = test system: B16-F10; test: Inhibition of melanin production in mouse B16-F10 cells at 21.42 ug/ml relative to control; format: functional, cell-based; conditions: dose 21.42 µg/ml
[15] = Inhibition of monophenolase activity of tyrosinase in C57BL/6 mouse melan-a cells incubated for 72 hrs by bradford method
[16] = test system: B16-F10; test: Inhibition of melanin production in mouse B16-F10 cells at 12.5 to 25 ug/ml relative to control; format: functional; conditions: dose 12.5-25 µg/ml
[17] = target: T2, Mushroom tyrosinase; test: Inhibition of monophenolase activity of mushroom tyrosinase using L-Tyrosine substrate incubated for 10 mins followed by substrate addition and measured for 20 mins
[18] = target: T2, Mushroom tyrosinase; test: Inhibition of monophenolase activity of mushroom tyrosinase
[19] = test system: B16-F10; test: Inhibition of melanin production in mouse B16-F10 cells at 6.25 ug/ml relative to control; format: functional

O=C1C[C@@H](c2ccc(O)cc2)Oc2cc(O)cc(O)c21
inhibition [1]: 2.8%

O=c1c(O)c(-c2ccccc2)oc2cc(O)cc(O)c12 [GALANGIN]
IC50 [2]: 420.37 µM | inhibition at 25 µg/mL [3]: 40% | inhibition [4]: 20% | solubility [5]: Insoluble | pIC50 [6]: < 3.70 | inhibition at 12.5 µg/mL [7]: 30% | IC50 [8]: 101 µM

O=C(/C=C/c1ccc(O)cc1O)c1ccc(O)cc1O
IC50 [9]: 0.06 µM

OC[C@H]1O[C@@H](Oc2ccc(O)cc2)[C@H](O)[C@@H](O)[C@@H]1O [ARBUTIN]
inhibition at 100 µg/mL [10]: 78% | pIC50 [6]: 3.41 | pIC50 [11]: 3.91

O=c1c(-c2ccc(O)cc2)coc2cc(O)cc(O)c12 [GENISTEIN]
IC50 [2]: > 200 µM | IC50 [12]: 4.18 µg/mL (≈ 15.5 µM) | IC50 [13]: 822 µM | inhibition [14]: inactive | pIC50 [6]: 4.10

COc1cc(O)c(C(=O)[C@@H]2[C@H](CC=C(C)C)C(C)=CC[C@H]2c2ccccc2)c(O)c1 [PANDURATIN A]
pIC50 [15]: 5.09

O=C(CCc1ccccc1)c1c(O)cc(O)cc1O
IC50 [2]: 68.48 µM | pIC50 [6]: 3.66 | inhibition (INH) [16]: 25%

CC(C)=CCc1c(O)cc(O)c2c1O[C@H](c1ccccc1)CC2=O [GLABRANIN]
IC50 [17]: 80.6 µM

CC(C)=CCc1c(O)ccc(C(=O)/C=C/c2ccc(O)cc2O)c1O [MORACHALCONE A]
IC50 [18]: 0.14 µM

Cc1c(O)c(C)c2c(c1O)C(=O)C[C@@H](c1ccccc1)O2 [DEMETHOXYMATTEUCINOL]
IC50 [17]: 97.6 µM

O=C1C[C@@H](c2ccccc2)Oc2cc(O)cc(O)c21 [PINOCEMBRIN]
IC50 [2]: > 200 µM | pIC50 [6]: 4.52 | inhibition at 12.5 µg/mL [7]: 8%

COc1cc(O)c(C(=O)CCc2ccccc2)c(O)c1
IC50 [2]: > 200 µM | inhibition at 6.25 µg/mL [19]: 10% | pIC50 [6]: 3.43

— ChEMBL document CHEMBL4715783, “Insights into tyrosinase inhibition by compounds isolated from Greyia radlkoferi Szyszyl using biological activity, molecular docking and gene expression analysis” (Bioorg Med Chem, 2016)
